Key:
[1] = molecular target: isolated smooth muscle myosin (UniProt P10587); format: biochemical, chamois; conditions: concentration required for semi-maximal inhibition of ATPase
Description: (ii) the concentration required for semi-maximal inhibition.

[2] = molecular target: recombinant Dictyostelium miozin (Dictyostelium) (Dictyostelium discoideum, UniProt P08799); experiment: actomyosin steady state ATPase measurement, Dictyostelium myosin; format: biochemical; conditions: for IC50: concentration required for semi-maximal inhibition of ATPase, read-out: IC50 (μM) Dicty; for % inhibition. complete Dicty: maximum value of inhibition of ATPase activity; for inhibition at 5 µM: read-out: % inhibition at 5 μM (or 10 μM if racemate) Dicty; for inhibition at 50 µM: read-out: % inhibition at 50 μM (or 100 μM if racemate) Dicty; for Inhibition (%) Dicty: maximum inhibition, compounds in IC50 range 1-11 μM
Description: (§1) […]; (ii) the concentration required for semi-maximal inhibition.

[3] = molecular target: T1, isolated porcine cardiac ventricular myocardium (cardiac) (Sus scrofa, UniProt P79293); experiment: actomyosin steady state ATPase measurement, cardiac myosin; format: biochemical; conditions: for IC50: concentration required for semi-maximal inhibition of ATPase; for % inhibition. complete cardiac: maximum value of inhibition of ATPase activity; for inhibition at 5 µM: read-out: % inhibition at 5 μM (or 10 μM if racemate) cardiac, 5 μM (10 μM if racemate); for inhibition at 5 µM / inhibition at 50 µM: ATPase activity; for inhibition at 50 µM: read-out: % inhibition at 50 μM (or 100 μM if racemate) cardiac, 50 μM (100 μM if racemate)
T1 construct: isolated porcine cardiac ventricular myocardium (cardiac); from tissue; host or cells: porcine cardiac ventricle
Description: as §1

[4] = molecular target: recombinant human non-muscle myosin 2 NM2C (Homo sapiens, UniProt Q7Z406); experiment: actomyosin steady state ATPase measurement, NM2C; format: biochemical; conditions: for IC50: concentration required for semi-maximal inhibition of ATPase; for % inhibition. complete NM2C: maximum value of inhibition of ATPase activity; for inhibition at 5 µM: read-out: % inhibition at 5 μM (or 10 μM if racemate) NM2C, 5 μM (10 μM if racemate); for inhibition at 5 µM / inhibition at 50 µM: ATPase activity; for inhibition at 50 µM: read-out: % inhibition at 50 μM (or 100 μM if racemate) NM2C, 50 μM (100 μM if racemate); for Inhibition (%) NM2C: maximum inhibition, compounds in IC50 range 1-5 μM
Description: as §1

[5] = system: isolated rabbit skeletal muscle myosin (skeletal); experiment: actomyosin steady state ATPase measurement, skeletal muscle myosin; format: biochemical; conditions: for % inhibition at 5 μM (or 10 μM if racemate) Skeletal: 5 μM (10 μM if racemate); for % inhibition at 5 μM (or 10 μM if racemate) Skeletal / % inhibition at 50 μM (or 100 μM if racemate) Skeletal: ATPase activity; for % inhibition at 50 μM (or 100 μM if racemate) Skeletal: 50 μM (100 μM if racemate); for IC50: concentration required for semi-maximal inhibition of ATPase; for % inhibition. complete Skeletal: maximum value of inhibition of ATPase activity
Description: as §1

[6] = molecular target: isolated smooth muscle myosin (UniProt P10587); format: biochemical, chamois; conditions: for % inhibition at 5 μM (or 10 μM if racemate) Smooth: 5 μM (10 μM if racemate); for % inhibition at 5 μM (or 10 μM if racemate) Smooth / % inhibition at 50 μM (or 100 μM if racemate) Smooth: ATPase activity; for % inhibition at 50 μM (or 100 μM if racemate) Smooth: 50 μM (100 μM if racemate); for % inhibition. complete Smooth: maximum value of inhibition of ATPase activity; for Inhibition (%) smooth: maximum inhibition, compounds in IC50 range 1-5 μM

Chain of recombinant human non-muscle myosin 2 NM2C (Q7Z406 whole entry): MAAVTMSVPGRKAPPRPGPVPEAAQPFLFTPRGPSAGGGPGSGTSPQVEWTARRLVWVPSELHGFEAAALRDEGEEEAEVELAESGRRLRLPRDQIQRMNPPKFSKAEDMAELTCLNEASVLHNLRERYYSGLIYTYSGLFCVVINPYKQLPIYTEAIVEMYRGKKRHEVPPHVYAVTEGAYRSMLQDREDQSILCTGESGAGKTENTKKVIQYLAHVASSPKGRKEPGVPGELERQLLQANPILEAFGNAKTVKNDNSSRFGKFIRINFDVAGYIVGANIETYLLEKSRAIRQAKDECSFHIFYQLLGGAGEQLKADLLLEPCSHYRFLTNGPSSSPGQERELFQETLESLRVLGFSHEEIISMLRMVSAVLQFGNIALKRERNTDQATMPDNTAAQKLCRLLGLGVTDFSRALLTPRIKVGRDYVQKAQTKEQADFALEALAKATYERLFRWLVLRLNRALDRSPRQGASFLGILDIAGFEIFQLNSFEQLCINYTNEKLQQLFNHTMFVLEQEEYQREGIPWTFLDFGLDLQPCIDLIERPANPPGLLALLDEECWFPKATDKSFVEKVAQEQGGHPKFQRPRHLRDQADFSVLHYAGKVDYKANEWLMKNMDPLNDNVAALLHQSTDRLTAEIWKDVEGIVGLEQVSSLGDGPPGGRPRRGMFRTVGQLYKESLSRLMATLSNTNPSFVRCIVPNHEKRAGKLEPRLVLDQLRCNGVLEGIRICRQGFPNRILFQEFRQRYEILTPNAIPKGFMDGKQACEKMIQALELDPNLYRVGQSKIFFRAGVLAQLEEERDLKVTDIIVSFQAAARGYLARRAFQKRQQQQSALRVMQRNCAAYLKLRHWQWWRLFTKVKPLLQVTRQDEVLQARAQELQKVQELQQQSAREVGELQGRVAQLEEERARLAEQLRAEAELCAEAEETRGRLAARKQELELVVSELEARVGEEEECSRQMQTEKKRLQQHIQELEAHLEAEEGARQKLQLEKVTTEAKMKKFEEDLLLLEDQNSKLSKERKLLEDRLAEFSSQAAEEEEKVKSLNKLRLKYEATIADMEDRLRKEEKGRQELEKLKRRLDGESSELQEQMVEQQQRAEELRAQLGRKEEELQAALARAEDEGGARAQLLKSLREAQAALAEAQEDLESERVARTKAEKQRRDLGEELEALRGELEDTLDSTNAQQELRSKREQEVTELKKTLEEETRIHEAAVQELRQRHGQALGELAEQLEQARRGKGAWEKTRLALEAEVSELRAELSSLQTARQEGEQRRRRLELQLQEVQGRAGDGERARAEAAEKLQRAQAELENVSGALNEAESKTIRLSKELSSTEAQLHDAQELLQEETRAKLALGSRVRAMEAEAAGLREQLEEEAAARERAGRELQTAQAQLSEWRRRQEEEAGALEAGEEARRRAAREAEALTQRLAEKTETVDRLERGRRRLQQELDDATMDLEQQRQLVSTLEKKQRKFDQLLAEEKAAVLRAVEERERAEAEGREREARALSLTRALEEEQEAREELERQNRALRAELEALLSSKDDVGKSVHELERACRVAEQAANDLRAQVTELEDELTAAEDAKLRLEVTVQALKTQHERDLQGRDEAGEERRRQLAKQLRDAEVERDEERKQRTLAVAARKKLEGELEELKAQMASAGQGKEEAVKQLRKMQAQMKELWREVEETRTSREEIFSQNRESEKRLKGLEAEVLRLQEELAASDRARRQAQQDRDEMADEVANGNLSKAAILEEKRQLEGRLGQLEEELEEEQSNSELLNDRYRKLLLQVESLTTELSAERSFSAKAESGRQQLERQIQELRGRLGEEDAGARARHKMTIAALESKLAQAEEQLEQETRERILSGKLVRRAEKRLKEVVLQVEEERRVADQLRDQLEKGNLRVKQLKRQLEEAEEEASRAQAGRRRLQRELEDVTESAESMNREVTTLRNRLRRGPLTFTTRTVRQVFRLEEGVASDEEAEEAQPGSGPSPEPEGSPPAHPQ
T1 sequence (P79293 whole entry): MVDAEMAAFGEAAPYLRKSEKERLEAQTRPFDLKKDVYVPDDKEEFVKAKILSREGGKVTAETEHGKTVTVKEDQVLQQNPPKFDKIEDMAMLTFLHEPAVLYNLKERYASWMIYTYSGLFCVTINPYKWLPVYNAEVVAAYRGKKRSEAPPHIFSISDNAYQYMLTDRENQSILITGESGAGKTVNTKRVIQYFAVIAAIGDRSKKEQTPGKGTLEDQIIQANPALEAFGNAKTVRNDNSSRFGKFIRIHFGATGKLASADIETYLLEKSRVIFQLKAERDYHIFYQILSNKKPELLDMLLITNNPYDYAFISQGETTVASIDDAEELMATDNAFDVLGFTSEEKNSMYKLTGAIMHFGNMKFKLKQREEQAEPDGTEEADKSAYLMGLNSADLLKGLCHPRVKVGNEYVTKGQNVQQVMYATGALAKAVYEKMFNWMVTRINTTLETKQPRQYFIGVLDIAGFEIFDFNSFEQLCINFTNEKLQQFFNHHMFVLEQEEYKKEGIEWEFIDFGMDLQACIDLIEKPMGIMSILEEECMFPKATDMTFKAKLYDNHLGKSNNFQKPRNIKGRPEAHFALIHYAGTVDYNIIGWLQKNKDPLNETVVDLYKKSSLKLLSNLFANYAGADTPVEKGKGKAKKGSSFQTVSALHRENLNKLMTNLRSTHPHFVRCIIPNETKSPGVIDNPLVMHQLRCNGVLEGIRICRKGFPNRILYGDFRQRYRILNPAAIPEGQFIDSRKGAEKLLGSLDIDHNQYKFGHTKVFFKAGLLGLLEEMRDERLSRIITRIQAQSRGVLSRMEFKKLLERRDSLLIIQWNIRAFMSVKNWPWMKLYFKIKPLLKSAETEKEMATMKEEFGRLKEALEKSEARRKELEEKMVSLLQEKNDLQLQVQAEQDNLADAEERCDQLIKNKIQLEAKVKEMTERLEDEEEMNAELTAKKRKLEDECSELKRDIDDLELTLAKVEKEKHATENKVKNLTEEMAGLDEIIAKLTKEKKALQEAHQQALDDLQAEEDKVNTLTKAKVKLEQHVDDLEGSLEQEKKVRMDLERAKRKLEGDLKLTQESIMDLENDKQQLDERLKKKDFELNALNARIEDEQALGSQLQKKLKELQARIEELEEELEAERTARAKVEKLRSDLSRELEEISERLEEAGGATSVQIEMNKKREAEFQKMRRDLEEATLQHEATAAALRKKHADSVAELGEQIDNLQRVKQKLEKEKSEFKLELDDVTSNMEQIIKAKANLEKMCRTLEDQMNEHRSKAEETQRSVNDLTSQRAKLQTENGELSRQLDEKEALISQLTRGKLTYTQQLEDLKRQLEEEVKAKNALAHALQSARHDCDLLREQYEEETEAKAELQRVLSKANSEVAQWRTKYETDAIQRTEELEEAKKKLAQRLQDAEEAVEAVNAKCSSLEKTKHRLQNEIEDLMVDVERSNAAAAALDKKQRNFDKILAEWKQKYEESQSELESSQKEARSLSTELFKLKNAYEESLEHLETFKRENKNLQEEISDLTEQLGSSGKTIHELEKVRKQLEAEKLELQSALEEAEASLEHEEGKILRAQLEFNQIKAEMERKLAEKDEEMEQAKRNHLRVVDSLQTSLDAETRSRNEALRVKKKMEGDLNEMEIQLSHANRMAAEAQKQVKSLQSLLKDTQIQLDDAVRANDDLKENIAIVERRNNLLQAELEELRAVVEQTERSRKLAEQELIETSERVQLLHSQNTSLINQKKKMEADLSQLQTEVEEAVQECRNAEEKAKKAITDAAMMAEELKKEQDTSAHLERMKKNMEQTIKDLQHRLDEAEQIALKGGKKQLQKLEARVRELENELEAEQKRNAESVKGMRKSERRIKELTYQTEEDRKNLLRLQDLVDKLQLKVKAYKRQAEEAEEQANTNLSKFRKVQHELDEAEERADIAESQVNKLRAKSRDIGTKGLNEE

SMILES	IC50 [1] [µM]	IC50 [2] [µM]	% inhibition. complete Dicty [2] [%]	inhibition at 5 µM [2] [%]	inhibition at 50 µM [2] [%]	IC50 [3] [µM]	% inhibition. complete cardiac [3] [%]	inhibition at 5 µM [3] [%]	inhibition at 50 µM [3] [%]	IC50 [4] [µM]	% inhibition. complete NM2C [4] [%]	inhibition at 5 µM [4] [%]	inhibition at 50 µM [4] [%]	% inhibition at 5 μM (or 10 μM if racemate) Skeletal [5] [%]	% inhibition at 50 μM (or 100 μM if racemate) Skeletal [5] [%]	IC50 [5] [µM]	% inhibition. complete Skeletal [5] [%]	% inhibition at 5 μM (or 10 μM if racemate) Smooth [6] [%]	% inhibition at 50 μM (or 100 μM if racemate) Smooth [6] [%]	% inhibition. complete Smooth [6] [%]	other results
COc1ccc(N2CCC3(O)C(=O)c4cc(C)sc4N=C23)cc1 (centres unmarked) [Compound 222, 9-Hydroxy-12-(4-methoxyphenyl)-5-methyl-4-thia-2,12-diazatricyclo[7.3.0.0^3,7]dodeca-1,3(7),5-trien-8-one]	0.86	4.7	100	49	99	0.52	93	82	92	0.76	91	77	89	92	95	0.11	95	83	97	98	–
Cc1cc2c(s1)N=C1N(c3ccc(C#N)cc3)CCC1(O)C2=O (centres unmarked) [Compound 224, 4-{9-Hydroxy-5-methyl-8-oxo-4-thia-2,12-diazatricyclo[7.3.0.0^3,7]dodeca-1,3(7),5-trien-12-yl}benzonitrile]	1.7	2.8	89	64	86	1.7	99	72	96	1.2	93	72	91	94	98	0.21	98	72	96	99	–
CC(=O)c1ccc(N2CCC3(O)C(=O)c4cc(C)sc4N=C23)cc1 (centres unmarked) [Compound 225, 12-(4-Acetylphenyl)-9-hydroxy-5-methyl-4-thia-2,12-diazatricyclo[7.3.0.0^3,7]dodeca-1,3(7),5-trien-8-one]	2.2	4.1	100	64	97	2.4	100	68	96	2.8	78	47	74	93	95	0.17	96	68	96	100	Inhibition (%) Dicty [2]: 100%
Cc1cc2c(s1)N=C1N(c3ccc(CC#N)cc3)CCC1(O)C2=O (centres unmarked) [Compound 226, 2-(4-{9-Hydroxy-5-methyl-8-oxo-4-thia-2,12-diazatricyclo[7.3.0.0^3,7]dodeca-1,3(7),5-trien-12-yl}phenyl)acetonitrile]	0.5	5.5	92	43	83	0.73	85	72	83	1.5	92	69	90	91	92	0.17	93	72	79	80	Inhibition (%) Dicty [2]: 92%
Cc1cc2c(s1)N=C1N(c3ccc(CO)cc3)CCC1(O)C2=O (centres unmarked) [Compound 227, 9-Hydroxy-12-[4-(hydroxymethyl)phenyl]-5-methyl-4-thia-2,12-diazatricyclo[7.3.0.0^3,7]dodeca-1,3(7),5-trien-8-one]	4	5.1	100	47	96	0.76	90	77	89	2.8	84	52	80	82	96	0.83	97	54	92	99	Inhibition (%) NM2C [4]: 84%
Cc1cc2c(s1)N=C1N(c3cccs3)CCC1(O)C2=O (centres unmarked) [Compound 229, 9-Hydroxy-5-methyl-12-(thiophen-2-yl)-4-thia-2,12-diazatricyclo[7.3.0.0^3,7]dodeca-1,3(7),5-trien-8-one]	3.4	1.4	97	74	95	1.4	93	54	87	1.1	100	78	98	87	96	0.61	97	54	87	93	Inhibition (%) smooth [6]: 93%
COc1ccc(N2CCC3(O)C(=O)c4cc(C)sc4N=C23)cn1 (centres unmarked) [Compound 230, 9-Hydroxy-12-(6-methoxypyridin-3-yl)-5-methyl-4-thia-2,12-diazatricyclo[7.3.0.0^3,7]dodeca-1,3(7),5-trien-8-one]	3.6	8.1	100	36	90	1.9	96	68	93	2.3	93	61	89	85	92	0.43	93	56	96	100	Inhibition (%) NM2C [4]: 93%; Inhibition (%) smooth [6]: 100%

— patent US12421243B2, “Pharmaceutically effective compounds inhibiting selectively the myosin 2 isoforms” (PRINTNET KERESKEDELMI ÉS SZOLGÁLTATÓ KFT., priority 2018, dated 2025)
